The source of these data is patent US5693805A, “Process to derivatives of piperizinylcamphorsulfonyl oxytocin antagonists” (Merck & Co., Inc., priority 1995, dated 1997).

For the experiment, the target named is T1, uterine OT receptors (Rattus norvegicus, UniProt P70536).
T1 construct: from tissue; host or cells: uterus of DES-treated rats, crude membrane preparation
T1 sequence (P70536 1-388): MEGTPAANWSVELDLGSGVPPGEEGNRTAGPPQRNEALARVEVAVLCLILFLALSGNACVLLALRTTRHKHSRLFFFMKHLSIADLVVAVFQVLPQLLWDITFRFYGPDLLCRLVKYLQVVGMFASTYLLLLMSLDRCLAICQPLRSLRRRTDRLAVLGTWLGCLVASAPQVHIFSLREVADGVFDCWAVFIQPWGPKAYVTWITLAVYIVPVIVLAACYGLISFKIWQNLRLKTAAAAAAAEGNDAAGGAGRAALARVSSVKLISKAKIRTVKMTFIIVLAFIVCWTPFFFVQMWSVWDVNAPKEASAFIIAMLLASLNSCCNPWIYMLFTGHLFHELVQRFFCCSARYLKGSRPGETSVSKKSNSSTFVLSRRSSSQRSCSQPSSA
Nature of the experiment: [3H]Oxytocin radioligand binding assay to uterine OT receptors (crude membrane preparation of uteri from DES-treated rats). The note with it: competition at equilibrium, 60 min, 22° C., 1 nM [3H]OT, pH 7.4; Ki = IC50/1+c/Kd, Kd [3H]OT (uterus) 0.7 nM; three to six separate determinations. How it is done: The high affinity binding of [^3 H] […] Competition studies were conducted at equilibrium (60 minutes; 22° C.) using 1 nM[^3 H]OT in the following assay buffer: 50 mM Tris-HCl, 5 mM MgCl2, and 0.1% BSA, pH 7.4.

In turn, `Cc1ccccc1N1CCN(S(=O)(=O)C[C@]23CC[C@H](C[C@@H]2NC(=O)[C@@H](N)CCS(C)(=O)=O)C3(C)C)CC1` [Compound I] returned a Ki of 7.7 nM.

A word on the Ki: it is the equilibrium dissociation constant of an inhibitor or competing ligand from its target. Lower therefore signals tighter binding.
